Assay results: patent US11045475B2, “Application of methyl 4-[9-(6-aminopuryl)]-2(s)-hydroxybutyrate in preparation of medicament for treating psoriasis and vitiligo” (SHANGHAI INSTITUTE OF MATERIA MEDICA, CHINESE ACADEMY OF …, priority 2016, dated 2021)

Tests used:
[1] = test system: psoriasis induced by imiquimod in mice; assay: Imiquimod-induced psoriasis in mice, ointment treatment, PASI scoring and skin lesion photographs; type: in vivo, female balb/c mice; details: 62.5 mg ointment (0.2 g per 10 g) on dorsal skin every day, observed over 15 days, FIG. 1
Text: Testing materials: the ointment base from Example 1; the methyl 4-[9-(6-aminopuryl)]-2(s)-hydroxybutyrate ointment from Example 2, and per 10 g of the ointment contains 0.2 g of methyl 4-[9-(6-aminopuryl)]-2(s)-hydroxybutyrate.
Modeling drug: Imiquimod Cream produced by SICHUAN MED-SHINE PHARMACEUTICAL CO., LTD.; SDA (State Drugs Administration) License No.: GUOYAOZHUNZI H20030128; Lot No.: 15060139.
Positive control drug: Calcipotriol Ointment produced by CHONGQING HUAPONT PHARM CO., LTD., SDA (State Drugs Administration) License No.: GUOYAOZHUNZI H20113541; Lot No.: 2015002.
Experimental animals: female balb/c mice with body weight of 18-22 g, provided by SHANGHAI SLAC LABORATORY ANIMAL CO., LTD. […]
(§1) Treatment: dorsal skin of the mice of the normal control group and model control group was applied with ointment base of 62.5 mg from Example 1 every day, and the dorsal skin of the mice of calcipotriol control group was applied with Calcipotriol Ointment of 62.5 mg every day, and the dorsal skin of the mice of ointment treatment group was applied with methyl 4-[9-(6-aminopuryl)]-2(s)-hydroxybutyrate ointment of 62.5 mg. […] Based on PASI score system, the erythema (FIG. 1A), scales (FIG. 1B) and skin thickening (FIG. 1C) of the dorsal skin were scored (0-4). […]

spleen swelling = assay: Spleen weight / spleen index in imiquimod-induced psoriasis mice; type: in vivo, female balb/c mice; details: after 7 days of ointment treatment, FIG. 2A, 2B
Text: (§2) FIG. 2 illustrates the inhibition of spleen swelling and T lymphocyte activation in spleen induced by imiquimod with methyl 4-[9-(6-aminopuryl)]-2(s)-hydroxybutyrate in mice. Mice models are weighed (FIG. 2A) and euthanized on Day 7 of imiquimod-induced psoriasis modeling, and spleens of the mice were weighed to calculate spleen index (FIG. 2B); naive T cells (CD3^+CD4^+CD44^−CD62L^+) ratio (FIG. 2C, 2D), and active T cells (CD3^+CD4^+CD44^+CD62L^−) ratio (FIG. 2C, 2E) are detected. *P<0.05, ***P<0.001, n≥5. The groups in FIG. 2 are the normal control group, model control group and ointment treatment group. FIG. 2C is for CD3^+CD4^+ T cells, and FIGS. 2D and 2E show the ratio of CD3^+CD4^+ T cells in all spleen lymphocytes. […]
as §1

[2] = test system: T lymphocyte activation in spleen; assay: Flow cytometry of naive and active T cells in spleen lymphocytes of imiquimod-induced psoriasis mice; type: in vivo, female balb/c mice; details: after 7 days of ointment treatment, FIG. 2C-2E
Text: as §2, §1

IL-17 = IL-17 ELISA of damaged skin extract of imiquimod-induced psoriasis mice; type: in vivo, female balb/c mice; details: after 7 days of ointment treatment, FIG. 3
Text: FIG. 3 illustrates the inhibition of IL-17 level in psoriatic lesions induced by imiquimod with methyl 4-[9-(6-aminopuryl)]-2(s)-hydroxybutyrate in mice. Skin of the lesions is taken on Day 7 of imiquimod-induced psoriasis modeling, and its IL-17 content is detected by ELISA. *P<0.05, n≥5. The groups in FIG. 3 are the normal control group, model control group and ointment treatment group.
Construction of animal models with psoriasis: normal control group, model control group, calcipotriol ointment control group, ointment treatment group, n=10/group. […]
as §1
The mice were weighed when the psoriasis was more serious after 7 days of treatment; the mice were sacrificed, and the spleens of each group were removed and weighed. […] Inflammatory factor (IL-17) of the extract was detected by ELISA (FIG. 3).

cells = details: background statement; cited from earlier work
[3] = test system: experimental autoimmune encephalomyelitis (EAE); details: animal models, background statement; cited from earlier work
[4] = test system: systemic lupus erythematosus (SLE); details: animal models, background statement; cited from earlier work
[5] = target: S-adenosyl-L-homocysteine hydrolase (SAHH) (Homo sapiens, UniProt P23526); details: background statement; cited from earlier work
Sequence of S-adenosyl-L-homocysteine hydrolase (SAHH) (P23526 whole entry, species assumed): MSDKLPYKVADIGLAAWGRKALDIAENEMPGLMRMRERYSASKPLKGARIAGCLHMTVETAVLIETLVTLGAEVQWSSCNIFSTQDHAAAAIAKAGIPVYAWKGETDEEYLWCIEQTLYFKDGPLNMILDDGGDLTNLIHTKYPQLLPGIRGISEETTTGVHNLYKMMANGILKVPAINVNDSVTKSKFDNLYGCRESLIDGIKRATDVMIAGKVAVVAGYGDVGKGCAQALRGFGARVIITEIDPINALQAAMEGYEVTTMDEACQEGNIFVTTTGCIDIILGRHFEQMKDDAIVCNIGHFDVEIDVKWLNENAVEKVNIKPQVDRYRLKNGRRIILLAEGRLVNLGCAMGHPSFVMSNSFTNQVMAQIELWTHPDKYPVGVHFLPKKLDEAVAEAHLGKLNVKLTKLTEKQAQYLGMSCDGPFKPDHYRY

With `COC(=O)C(O)CCn1cnc2c(N)ncnc21` (centres unmarked) [methyl 4-[9-(6-aminopuryl)]-2(s)-hydroxybutyrate] the “PASI scores of erythema, scales, skin thickening and total score of skin lesion severity” value [1] was “relieved psoriasis induced by imiquimod in mice effectively”, the “spleen swelling (spleen index)” value (spleen swelling) was “improved spleen swelling in mice with psoriasis induced by imiquimod significantly” and the “T lymphocyte activation (ratio of naive and active T cells in spleen lymphocytes)” value [2] was “inhibited T lymphocyte activation in mice with psoriasis induced by imiquimod”. For the same compound, the “level of IL-17 in the damaged skin” value (IL-17) was “inhibited the level of IL-17 in the damaged skin”, the cytotoxicity (cells) was “low cytotoxicity” and the “therapeutic effect on EAE” value [3] was “good therapeutic effect”. For the same compound, the “therapeutic effect on SLE” value [4] was “good therapeutic effect” and the “type of SAHH inhibition” value [5] was “type III inhibitor of SAHH”.
